Results reported in patent US11046680B1, “Heteroaryl-substituted triazoles as APJ receptor agonists” (priority 2016, dated 2021).

Target: human APJ receptor (Homo sapiens (Human), UniProt P35414)
Test: biochemical
Type: biochemical
Conditions: [35S]GTPγS binding, CHO membranes expressing human APJ receptor; read-out: Activity hAPJ SPA EC50 IP
How it was run: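 GTPγS binding on membranes from CHO cells stably expressing FLAG-tagged human APJ, with optimized GDP, MgCl2 and NaCl; incubated 90 min at RT before imaging read-out.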

human APJ receptor, sequence (P35414 whole entry): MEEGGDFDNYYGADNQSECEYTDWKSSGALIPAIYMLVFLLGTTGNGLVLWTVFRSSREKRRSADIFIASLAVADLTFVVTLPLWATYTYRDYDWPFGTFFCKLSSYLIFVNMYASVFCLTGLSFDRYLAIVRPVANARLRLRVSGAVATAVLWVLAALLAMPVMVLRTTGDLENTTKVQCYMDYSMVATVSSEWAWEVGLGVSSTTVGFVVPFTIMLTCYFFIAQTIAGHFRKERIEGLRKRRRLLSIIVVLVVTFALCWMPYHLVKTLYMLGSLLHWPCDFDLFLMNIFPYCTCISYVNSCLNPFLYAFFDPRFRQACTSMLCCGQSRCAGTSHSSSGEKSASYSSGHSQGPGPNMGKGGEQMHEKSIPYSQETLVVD

Compound	EC50
(R)-N-(4-(2,6-dimethoxyphenyl)-5-(pyrimidin-4-yl)-4H-1,2,4-triazol-3-yl)-1-(5-fluoropyrimidin-2-yl)propane-2-sulfonamide and (R)-N-(4-(2,6-dimethoxyphenyl)-5-(pyrimidin-4-yl)-4H-1,2,4-triazol-3-yl)-1-(5-fluoropyrimidin-2-yl)propane-2-sulfonamide [Example 31.0]	190 nM
CCO[C@@H](c1ncc(Cl)cn1)[C@H](C)S(=O)(=O)Nc1nnc(-c2ccn(C)n2)n1-c1c(OC)cccc1OC (single isomer, unassigned) [Example 353.0, (1S,2S)-1-(5-chloropyrimidin-2-yl)-N-(4-(2,6-dimethoxyphenyl)-5-(1-methyl-1H-pyrazol-3-yl)-4H-1,2,4-triazol-3-yl)-1-ethoxypropane-2-sulfonamide or (1R,2R)-1-(5-chloropyrimidin-2-yl)-N-(4-(2,6-dimethoxyphenyl)-5-(1-methyl-1H-pyrazol-3-yl)-4H-1,2,4-triazol-3-yl)-1-ethoxypropane-2-sulfonamide]	0.22 nM
COc1cccc(OC)c1-n1c(NS(=O)(=O)[C@@H](C)[C@H](OC)c2ncc(Cl)cn2)nnc1-c1cc2n(n1)CCC2 [Example 210.0, (1R,2S)-1-(5-chloro-2-pyrimidinyl)-N-(5-(5,6-dihydro-4H-pyrrolo[1,2-b]pyrazol-2-yl)-4-(2,6-dimethoxyphenyl)-4H-1,2,4-triazol-3-yl)-1-methoxy-2-propanesulfonamide]	0.83 nM
COc1cccc(OC)c1-n1c(NS(=O)(=O)[C@@H](C)[C@H](OC)c2ncc(C)cn2)nnc1-c1nccs1 [Example 341.0, (1R,2S)-N-(4-(2,6-dimethoxyphenyl)-5-(1,3-thiazol-2-yl)-4H-1,2,4-triazol-3-yl)-1-methoxy-1-(5-methyl-2-pyrimidinyl)-2-propanesulfonamide]	0.73 nM
COc1cccc(OC)c1-n1c(NS(=O)(=O)[C@@H](C)[C@H](OC)c2ncc(Cl)cn2)nnc1-c1cc(C)[nH]n1 [Example 344.0, (1R,2S)-1-(5-chloro-2-pyrimidinyl)-N-(4-(2,6-dimethoxyphenyl)-5-(5-methyl-1H-pyrazol-3-yl)-4H-1,2,4-triazol-3-yl)-1-methoxy-2-propanesulfonamide]	0.63 nM
COc1cnc([C@@H](OC)[C@H](C)S(=O)(=O)Nc2nnc(-c3ccn(C)n3)n2-c2c(OC)cccc2OC)cn1 (single isomer, unassigned) [Example 309.0, (1R,2S)-N-(4-(2,6-dimethoxyphenyl)-5-(1-methyl-1H-pyrazol-3-yl)-4H-1,2,4-triazol-3-yl)-1-methoxy-1-(5-methoxy-2-pyrazinyl)-2-propanesulfonamide or (1S,2R)-N-(4-(2,6-dimethoxyphenyl)-5-(1-methyl-1H-pyrazol-3-yl)-4H-1,2,4-triazol-3-yl)-1-methoxy-1-(5-methoxy-2-pyrazinyl)-2-propanesulfonamide]	34 nM
CCn1ccc(-c2nnc(NS(=O)(=O)[C@@H](C)[C@H](C)c3ncc(F)cn3)n2-c2c(OC)cccc2OC)n1 [Example 191.0, (2S,3R)-N-(4-(2,6-dimethoxyphenyl)-5-(1-ethyl-1H-pyrazol-3-yl)-4H-1,2,4-triazol-3-yl)-3-(5-fluoro-2-pyrimidinyl)-2-butanesulfonamide]	0.63 nM
COc1cccc(OC)c1-n1c(NS(=O)(=O)C[C@H](O)c2ccc(Cl)cc2)nnc1-c1ccn(C)n1 (single isomer, unassigned) [Example 374.0, (R)-2-(4-Chlorophenyl)-N-(4-(2,6-dimethoxyphenyl)-5-(1-methyl-1H-pyrazol-3-yl)-4H-1,2,4-triazol-3-yl)-2-hydroxyethanesulfonamide or (R)-2-(4-chlorophenyl)-N-(4-(2,6-dimethoxyphenyl)-5-(1-methyl-1H-pyrazol-3-yl)-4H-1,2,4-triazol-3-yl)-2-hydroxyethanesulfonamide]	7 nM
COc1ccc(N(C)C)cc1-n1c(NS(=O)(=O)CCc2ccc(Cl)cc2)nnc1-c1cccs1 [Example 252.0, 2-(4-chlorophenyl)-N-(4-(5-(dimethylamino)-2-methoxyphenyl)-5-(2-thiophenyl)-4H-1,2,4-triazol-3-yl)ethanesulfonamide]	11 nM
(2R,3S)-N-(4-(2,6-dimethoxyphenyl)-5-(1-methyl-1H-pyrazol-3-yl)-4H-1,2,4-triazol-3-yl)-3-(5-methyl-2-pyrazinyl)-2-butanesulfonamide and (2S,3R)-N-(4-(2,6-dimethoxyphenyl)-5-(1-methyl-1H-pyrazol-3-yl)-4H-1,2,4-triazol-3-yl)-3-(5-methyl-2-pyrazinyl)-2-butanesulfonamide [Example 279.0]	2.8 nM
CCn1ccc(-c2nnc(NS(=O)(=O)[C@@H](C)[C@H](OC)c3ncc(F)cn3)n2-c2c(OC)cccc2OC)n1 [Example 134.0, (1R,2S)-N-(4-(2,6-Dimethoxyphenyl)-5-(1-ethyl-1H-pyrazol-3-yl)-4H-1,2,4-triazol-3-yl)-1-(5-fluoro-2-pyrimidinyl)-1-methoxy-2-propanesulfonamide]	1.2 nM
COCC1(n2c(NS(=O)(=O)[C@@H](C)[C@H](OC)c3ncc(Cl)cn3)nnc2-c2n[nH]c3ccccc23)CC1 [Example 495.0, (1R,2S)-1-(5-chloro-2-pyrimidinyl)-N-(5-(1H-indazol-3-yl)-4-(1-(methoxymethyl)cyclopropyl)-4H-1,2,4-triazol-3-yl)-1-methoxy-2-propanesulfonamide]	13 nM
COc1cccc(OC)c1-n1c(NS(=O)(=O)[C@H](C)Cc2ncc(F)cn2)nnc1-c1nc(C(C)C)cs1 (single isomer, unassigned) [Example 157.0, (R)-N-(4-(2,6-dimethoxyphenyl)-5-(4-isopropylthiazol-2-yl)-4H-1,2,4-triazol-3-yl)-1-(5-fluoropyrimidin-2-yl)propane-2-sulfonamide or (S)-N-(4-(2,6-dimethoxyphenyl)-5-(4-isopropylthiazol-2-yl)-4H-1,2,4-triazol-3-yl)-1-(5-fluoropyrimidin-2-yl)propane-2-sulfonamide]	58 nM

System: not given
Test: not given
Conditions: cited from earlier work

Compound	plasma half-life
Apelin-13 (QRPRLSHKGPMPF; Apelin-13; UniProt Q9ULZ1 65-77, looked up)	< 5 min

System: heart failure rat model (MI Rat Model)
Test: In vivo cardiac contractility in heart failure (MI) rat model
Design: species or system Lewis rat
Conditions: heart failure rats in vivo, acute settings
Protocol: Evidence for Improvement in Cardiac Contractility In Vivo in Heart Failure Rat Model
Based on the ex vivo findings in isolated heart assay, APJ agonists were dosed in vivo to investigate the translation of cardiac contractility in in vivo settings. Male Lewis rats (Charles River, USA) at 2-3 months of age were used for the study. Heart failure was induced by permanent ligation of the left descending coronary artery which results in injury to the heart with an ejection fraction of <35%. APJ agonists were administered dose dependently acutely for a period of 30 min. Administration of example compounds lead to an increase in cardiac contractility as measured by dP/dtmax (derivative of left ventricular pressure) (Table 41).

Compound	improvement in contractility or ejection fraction
C[C@H](CS)C(=O)N1CCC[C@H]1C(=O)O [Captopril]	does not show a marked improvement in contractility or ejection fraction
